Test systems include CAKI-1 renal; OVCAR-4 ovarian; UACC-62 melanoma; A549 NSCLC; M19-MEL melanoma; ACHN renal; SK-MEL-5 melanoma; A498 renal; LXFL 529 NSCLC; PC-3 prostate; NCI/ADR-RES ovarian.
Common to all, as to test: NCI-60 cell line screen, 48 h

Molecules are shown by their SMILES. Several values for one entry are separate records, joined by “and”; a condition that tells them apart may be missing. Identical values can stand only once.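 Cultured in 96-well plates, cells were exposed to test compound for 48 hours across five concentrations. Here, GI50 denotes the concentration required for 50% inhibition of growth. The concentration for full growth arrest is given as TGI.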

As to `COC(=O)n1c(CBr)c(Br)c2ccccc21`, the TGI in the assay on CAKI-1 renal was 49.9 µM; in the assay on OVCAR-4 ovarian, 66.2 µM; with UACC-62 melanoma it was 86.4 µM; with A549 NSCLC it was above 100 µM; in the assay with M19-MEL melanoma, above 100 µM; with ACHN renal it was 47.9 µM. Further, in the assay with SK-MEL-5 melanoma, the TGI is above 100 µM.
Regarding `COc1ccc(C2=CN3CCC[C@H]3C=C2c2cc(O)c(OC)c(OC)c2)cc1OC`, the TGI was 0.0269 µM and 0.062 µM with A498 renal; 0.0522 µM with CAKI-1 renal; 0.0374 µM in the assay with OVCAR-4 ovarian; 0.0336 µM with UACC-62 melanoma; 0.078 µM and 0.376 µM with LXFL 529 NSCLC; 0.274 µM and 0.172 µM with A549 NSCLC. Besides, the TGI with M19-MEL melanoma was determined as 0.011 µM; with ACHN renal it was 0.0959 µM; in the assay on SK-MEL-5 melanoma, 0.015 µM; in the assay on PC-3 prostate, 0.0538 µM.
As to `CCOC12SC(=Nc3ccc(C)cc3)NN1C(=S)N(C)N=C2C` (stereo not given), the TGI in the assay on A498 renal, with OVCAR-4 ovarian, in the assay on UACC-62 melanoma, in the assay with LXFL 529 NSCLC, in the assay with A549 NSCLC and with M19-MEL melanoma was above 100 µM in each case. The TGI with ACHN renal and in the assay with SK-MEL-5 melanoma was above 100 µM throughout.
For the compound `Cc1cc(N=C2C=C(Nc3cc(C)on3)C(=O)c3ccccc32)no1`, the TGI with A498 renal is above 100 µM; in the assay with CAKI-1 renal it was above 100 µM; in the assay on OVCAR-4 ovarian, above 100 µM; with UACC-62 melanoma, 38.4 µM; with LXFL 529 NSCLC, above 100 µM; in the assay on NCI/ADR-RES ovarian, above 100 µM. Also, the TGI with A549 NSCLC is above 100 µM; in the assay on M19-MEL melanoma, 8.12 µM; with ACHN renal, above 100 µM; in the assay with SK-MEL-5 melanoma, 15.9 µM; in the assay with PC-3 prostate, above 100 µM.
For the compound `Clc1ncnc2c1ncn2CCCCCCCCCCCCn1cnc2c(Cl)ncnc21`, the TGI is 24.6 µM in the assay on A498 renal; 7.68 µM in the assay with CAKI-1 renal; 23.3 µM in the assay with OVCAR-4 ovarian; 26.9 µM with UACC-62 melanoma; 17.5 µM with LXFL 529 NSCLC; 26.4 µM in the assay with A549 NSCLC. In addition, the TGI was determined as 5.7 µM in the assay on M19-MEL melanoma, 27.9 µM in the assay on ACHN renal and 17.5 µM with SK-MEL-5 melanoma.
As to `CC(=O)NC1=C(NCc2ccc(Cl)cc2)C(=O)c2ccccc2C1=O`, the TGI in the assay with OVCAR-4 ovarian is 13.4 µM; in the assay with UACC-62 melanoma it was 8.61 µM; in the assay on LXFL 529 NSCLC, 13 µM; in the assay with A549 NSCLC it was above 50 µM; with M19-MEL melanoma it was 11.2 µM; in the assay on ACHN renal it was 6.13 µM. For the same compound, in the assay on SK-MEL-5 melanoma, the TGI amounted to 11.4 µM.
As for `CS(=O)(=O)O.[Ag]`, the TGI came out at 40 µM with A498 renal; 34.2 µM in the assay with CAKI-1 renal; 9.43 µM with OVCAR-4 ovarian; 31.8 µM with UACC-62 melanoma; 74.3 µM in the assay on NCI/ADR-RES ovarian; 33.8 µM in the assay with A549 NSCLC. For the same compound, the TGI with ACHN renal stood at 16.8 µM; with SK-MEL-5 melanoma it was 18.3 µM; in the assay with PC-3 prostate, 27.2 µM.
As to `COc1ccc2c(c1)-c1nn(CCN(C)C)c3ccc(C(=O)NCCCN(C)CCCNC(=O)c4ccc5c6c(nn5CCN(C)C)-c5cc(OC)ccc5Nc46)c(c13)N2`, the TGI in the assay on A498 renal was 0.633 µM; with CAKI-1 renal, 8.12 µM; in the assay on OVCAR-4 ovarian, 0.827 µM; in the assay with UACC-62 melanoma, 0.23 µM; in the assay on NCI/ADR-RES ovarian, above 62.9 µM; with A549 NSCLC it was 1.17 µM. Moreover, the figures for the TGI in the assay on ACHN renal, with SK-MEL-5 melanoma and in the assay on PC-3 prostate were 7.28 µM, 0.313 µM and 1.09 µM, respectively.
Regarding `CC(C)(NC1=NCCO1)c1ccccc1`, the TGI in the assay on A498 renal, with CAKI-1 renal, in the assay on OVCAR-4 ovarian, with UACC-62 melanoma, with NCI/ADR-RES ovarian and in the assay with A549 NSCLC was above 100 µM throughout. In addition, the TGI in the assay with ACHN renal, with SK-MEL-5 melanoma and in the assay on PC-3 prostate was above 100 µM throughout.
Take `CCOC(=O)N(C)C1(c2ccccc2)CCN(CCCC(=O)c2ccc(F)cc2)CC1`: the TGI in the assay with A498 renal, with CAKI-1 renal, in the assay on OVCAR-4 ovarian, in the assay on UACC-62 melanoma, with NCI/ADR-RES ovarian and in the assay on A549 NSCLC was above 100 µM throughout. Also, the figures for the TGI with ACHN renal, in the assay on SK-MEL-5 melanoma and in the assay with PC-3 prostate were above 100 µM, 31.3 µM and above 100 µM, respectively.
For the compound `CC(C)C(C/C=C1\CC(CO)(COC(=O)CC(C(C)C)C(C)C)OC1=O)C(C)C` (stereo not given), the TGI in the assay on A498 renal was 25.5 µM; with CAKI-1 renal, 20.3 µM; in the assay with OVCAR-4 ovarian, 33 µM; with UACC-62 melanoma, 29 µM; in the assay with NCI/ADR-RES ovarian, 31.8 µM; in the assay with A549 NSCLC, 18.8 µM. Moreover, the TGI in the assay with ACHN renal is 22.5 µM; in the assay on SK-MEL-5 melanoma it was 23 µM; in the assay on PC-3 prostate, 24.6 µM.
For `CC(=O)Nc1ccc(-c2nnc(SCC(=O)Nc3ccccc3C)o2)cc1`, the TGI in the assay with OVCAR-4 ovarian, with UACC-62 melanoma, in the assay on LXFL 529 NSCLC, in the assay with A549 NSCLC, in the assay on M19-MEL melanoma and in the assay on ACHN renal was above 100 µM each time. The compound further came in with a TGI in the assay on SK-MEL-5 melanoma above 100 µM.
With `COc1nc2[nH]ccc2c(=O)n1C`, the TGI in the assay on A498 renal was above 100 µM; in the assay with CAKI-1 renal, 57.6 µM; in the assay with OVCAR-4 ovarian, 41.5 µM; with LXFL 529 NSCLC, above 100 µM; in the assay on A549 NSCLC, above 100 µM; with ACHN renal, above 100 µM. For the same compound, the TGI with SK-MEL-5 melanoma was above 100 µM.
`CC(C)(C)c1cc(C2COC(=O)COCC(=O)OCCOCCOCCO2)cc(C(C)(C)C)c1O` (stereo not given): the TGI in the assay with A498 renal is above 91.9 µM; in the assay with CAKI-1 renal, 51.3 µM; in the assay on OVCAR-4 ovarian, above 100 µM; in the assay with UACC-62 melanoma it was above 69.1 µM; in the assay on NCI/ADR-RES ovarian it was above 100 µM; in the assay on A549 NSCLC, above 31.6 µM. The figures for the TGI in the assay on ACHN renal, in the assay with SK-MEL-5 melanoma and in the assay on PC-3 prostate were 37.2 µM, above 100 µM and above 100 µM, respectively.
As for `O=C(Nc1cccc(-n2ccc3c(NC(=O)c4ccccc4)nccc32)c1)c1cc(N2CCOCC2)cc(C(F)(F)F)c1`, the GI50 in the assay with A498 renal was 0.0315 µM; in the assay on CAKI-1 renal, 0.0641 µM; with OVCAR-4 ovarian, 0.175 µM; in the assay with UACC-62 melanoma it was 0.0511 µM; in the assay on NCI/ADR-RES ovarian, 0.09 µM; with A549 NSCLC, 0.142 µM. Further, the GI50 in the assay with ACHN renal was 0.116 µM; in the assay with SK-MEL-5 melanoma, 0.0671 µM; with PC-3 prostate, 0.152 µM. The TGI in the assay on A498 renal is 0.729 µM; in the assay with OVCAR-4 ovarian, above 100 µM; with UACC-62 melanoma, above 44.2 µM; in the assay on NCI/ADR-RES ovarian it was above 100 µM; in the assay on SK-MEL-5 melanoma, 0.249 µM; with PC-3 prostate, above 100 µM.
For `CC(C)(C)OC(=O)NCC(=O)N1CCCN(C(=O)CNC(=O)OC(C)(C)C)CC1`, the TGI in the assay with A498 renal, in the assay on CAKI-1 renal, with OVCAR-4 ovarian, in the assay on UACC-62 melanoma, in the assay on NCI/ADR-RES ovarian and in the assay on A549 NSCLC was above 100 µM throughout. The TGI with ACHN renal, in the assay on SK-MEL-5 melanoma and with PC-3 prostate was above 100 µM each time.
`CN1CCCCC(C(O)(c2ccccc2)c2ccccc2)C1=O` (stereo not given): the TGI with A498 renal, with OVCAR-4 ovarian, in the assay on UACC-62 melanoma, in the assay with LXFL 529 NSCLC, with A549 NSCLC and in the assay on M19-MEL melanoma was above 100 µM throughout. Moreover, the TGI in the assay on ACHN renal and in the assay with SK-MEL-5 melanoma was above 100 µM in each case.
On to `NC(=O)CS(=O)CC(N)C(=O)O` (stereo not given), for which the TGI with A498 renal, in the assay on CAKI-1 renal, with OVCAR-4 ovarian, in the assay on UACC-62 melanoma, in the assay on NCI/ADR-RES ovarian and in the assay on A549 NSCLC was above 100 µM throughout. For the same compound, the TGI in the assay on ACHN renal, in the assay on SK-MEL-5 melanoma and with PC-3 prostate was above 100 µM throughout.
With `CC(=O)NC1=C(C)C(=O)c2c(nc3n2CC[C@H]3OC(C)=O)C1=O`, the TGI was found to be 30.5 µM with A498 renal; 8.22 µM with CAKI-1 renal; 3 µM with OVCAR-4 ovarian; 3.77 µM in the assay with UACC-62 melanoma; 15.6 µM with NCI/ADR-RES ovarian; 24.8 µM with A549 NSCLC. The TGI in the assay on ACHN renal came to 9.34 µM; in the assay on SK-MEL-5 melanoma, 8.07 µM; in the assay with PC-3 prostate, 1.99 µM.

The record behind these values is PubChem BioAssay (NCI).
